From patent US20100093706A1, “MULTIMEDIATOR TRANSPORTER INHIBITORS FOR USE IN TREATMENT OF CENTRAL NERVOUS SYSTEM DISORDERS” (priority 2006, published 2010)

Assays:
sigma-1 (σ1) receptor = sigma-1 (σ1) receptor (Homo sapiens, UniProt Q99720); test: in vitro selectivity panel, sigma-1 receptor; assay type: binding
Procedure: The in vitro selectivity profile of two representative subject compounds, (3) and (1), are also tested against a panel of other receptors, including the M1 receptor, Histamine H1 receptor, sigma-1 (σ1) receptor, β1-adrenergic receptor, and dopamine D2 receptor. Representative results are listed below in Table III: […]

rats = test: forced swim test (behavioral despair assay) in rats; assay type: in vivo; conditions: rat
Procedure: In vivo efficacy of several illustrative inhibitors of the instant invention, (1), (3), and (4), were measured using standard forced swim test model using rat. The objective of this study was to assess the antidepressant effects of test compounds in the behavioral despair assay in rats using a modification of a method described by Porsolt R. D. et al. in Behavioural despair in rats: a new model sensitive to antidepressant treatment, Eur. J. Pharmacol., 47: 379-391, 1978; Porsolt et al., Nature 266: 730-732, 1977; and Porsolt et al., in Psychopharmacology, Olivier, Mos, and Slangen (eds) Birkhäuser Verlag, Basel, pp. 137-159, 1991. Briefly, when mice (or rats) are forced to swim in a cylinder from which no escape is possible, they readily adopt a characteristic immobile posture and make no further attempts to escape except for small movements needed to keep floating. The immobility is considered by some to reflect a “depressive mood” (Porsolt et al., Nature 266: 730-732, 1977) in which animals cease to struggle to escape the aversive situation. The immobility induced by the procedure is influenced by a wide variety of antidepressants (Porsolt et al., in Psychopharmacology, Olivier, Mos, and Slangen (eds) Birkhauser Verlag, Basel, pp. 137-159, 1991) and has a good predictive validity in that it detects antidepressants with different mechanisms of action (TCAs, SSRIs, MAOIs, and other atypical ones). The test is sensitive to muscle-relaxant (benzodiazepines) and sedative (neuroleptics) effects, leading to enhanced immobility (Porsolt et al., supra).
In a typical experiment, animals are placed singly into a cylinder (e.g. 46×30 cm) containing fresh water at about 20° C. for 6 minutes. The activity (or immobility) of the animal is measured by an observer minute by minute. In more detail, the animals were preconditioned in a pretest session, where the rats were individually forced to swim inside a vertical plexiglass cylinder containing water maintained at 19-20° C. After 15 minutes in the water, they were allowed to dry for […] in a heated enclosure. Twenty-four hours later, the compounds were administered either intraperitoneally or orally to the animals. One hour after administration of the test compound, animals were put back into the cylinder containing water. The total duration of immobility was measured during the last 4 minutes of a 6 minute test.
The results are expressed as the percentage of variation of the total duration of immobility calculated from the mean value of the vehicle-treated group (% variation=[(immobility duration of vehicle−immobility duration of test compound)/(immobility duration of vehicle)]×100%).
In order to measure the in vivo efficacy of inhibiting DAT in rats using an inhibitor of the instant invention, one test inhibitor ((1), (3), or (4)) was injected i.p. as racemic mixtures of diastereomers into the animals, at various-doses (e.g. 7.5 and […]). Sibutramine (2.0 and 2.5 mg/kg), Bupropion (7.5 and 10 mg/kg), and Imipramine (30 mg/kg) were similarly administered as controls. […] Asterisks indicate highly statistical significant results.
A fourth inhibitor, (6) was administered p.o. as a racemic mixture of diastereomers at either 35 or 75 mg/kg. Sibutramine (5.0 and 3.75 mg/kg), Bupropion (30 and 40 mg/kg), and Imipramine (100 mg/kg) were similarly administered as controls.
Similarly, (1) was also administered p.o. as a racemic mixture of enriched (95:5) diastereomer at either 35 or 75 mg/kg. […]

in vivo = conditions: rat

Chain of sigma-1 (σ1) receptor (Q99720 whole entry): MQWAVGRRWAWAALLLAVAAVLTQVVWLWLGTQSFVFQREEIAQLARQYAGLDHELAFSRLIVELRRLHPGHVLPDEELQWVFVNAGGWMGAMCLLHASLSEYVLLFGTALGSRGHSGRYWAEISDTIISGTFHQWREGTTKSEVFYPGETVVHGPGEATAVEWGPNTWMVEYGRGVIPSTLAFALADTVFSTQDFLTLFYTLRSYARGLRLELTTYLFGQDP

With `CC1CCN(CC2(c3ccc(Cl)cc3)CCC2)CC1COc1ccc(C(F)(F)F)cc1` (stereo not drawn) [(1)] the “Sigma σ1 (nM)h” value (sigma-1 (σ1) receptor) was 5000 nM, the “forced swim test efficacy versus commercial drugs (FIG. 1)” value (rats; i.p., racemic mixtures of diastereomers) was “performed equally well, if not better, than the commercial drugs Sibutramine, Bupropion, and Imipramine” and the “forced swim test efficacy versus commercial drugs (FIG. 2, FIG. 3)” value (rats; p.o., 35 or 75 mg/kg) was “performed equally well, if not better, than the commercial drugs Sibutramine, Bupropion, and Imipramine”. For the same molecule, the Vd (in vivo) was 6 L/kg, the half-life (in vivo; iv) was 3.33 h and the bioavailability (in vivo; po) was 40%.
